The supplement of paper PMC9663587

Experiments:
YKL-5-124 = compound: C=CC(=O)Nc1ccc(C(=O)Nc2[nH]nc3c2CN(C(=O)N[C@H](CN(C)C)c2ccccc2)C3(C)C)cc1 [YKL-5-124]; experiment: GR value, 72 h; higher = faster growth (1 = untreated, <0 = killing);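 note: breast cancer and non-malignant breast epithelial lines, nine half-log doses, viable cells counted by Hoechst and LIVE/DEAD dye imaging versus time-zero plates and DMSO controls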
[1] = compound: CCc1cnn2c(NCc3ccc[n+]([O-])c3)cc(N3CCCC[C@H]3CCO)nc12; experiment: as above
LEE011/Ribociclib = compound: CN(C)C(=O)c1cc2cnc(Nc3ccc(N4CCNCC4)cn3)nc2n1C1CCCC1 [LEE011/Ribociclib]; experiment: as above
BSJ-03-123 = compound: CC(=O)c1c(C)c2cnc(Nc3ccc(N4CCN(CCOCCOCCOCCNC(=O)COc5cccc6c5C(=O)N(C5CCC(=O)NC5=O)C6=O)CC4)cn3)nc2n(C2CCCC2)c1=O [BSJ-03-123]; experiment: as above
THZ1 = compound: CN(C)C/C=C/C(=O)Nc1ccc(C(=O)Nc2cccc(Nc3ncc(Cl)c(-c4c[nH]c5ccccc45)n3)c2)cc1 [THZ1]; experiment: as above
[2] = compound: CCN1CCN(Cc2ccc(Nc3ncc(F)c(-c4cc(F)c5nc(C)n(C(C)C)c5c4)n3)nc2)CC1; experiment: as above
THZ531 [3] = compound: T1, CN(C)C/C=C/C(=O)Nc1ccc(C(=O)N2CCC[C@@H](Nc3ncc(Cl)c(-c4c[nH]c5ccccc45)n3)C2)cc1 [THZ531]; experiment: as above
[4] = compound: CC(=O)c1c(C)c2cnc(Nc3ccc(N4CCNCC4)cn3)nc2n(C2CCCC2)c1=O; experiment: as above
Rucaparib = compound: CNCc1ccc(-c2[nH]c3cc(F)cc4c3c2CCNC4=O)cc1 [Rucaparib]
BSJ-01-175 = compound: CN(C)C/C=C/C(=O)Nc1ccc(O[C@@H]2CCC[C@@H](Nc3ncc(Cl)c(-c4c[nH]c5ccccc45)n3)C2)cc1 [BSJ-01-175]
Tivantinib/ARQ197 = compound: O=C1NC(=O)[C@@H](c2cn3c4c(cccc24)CCC3)[C@@H]1c1c[nH]c2ccccc12 [Tivantinib/ARQ197]
Pictilisib/GDC0941 = compound: CS(=O)(=O)N1CCN(Cc2cc3nc(-c4cccc5[nH]ncc45)nc(N4CCOCC4)c3s2)CC1 [Pictilisib/GDC0941]
Cediranib/AZD2171 = compound: COc1cc2c(Oc3ccc4[nH]c(C)cc4c3F)ncnc2cc1OCCCN1CCCC1 [Cediranib/AZD2171]
senexin b = compound: CN1CCN(C(=O)c2ccc3cc(CCNc4ncnc5ccc(C#N)cc45)ccc3c2)CC1 [senexin b]
Ceritinib/LDK378 = compound: Cc1cc(Nc2ncc(Cl)c(Nc3ccccc3S(=O)(=O)C(C)C)n2)c(OC(C)C)cc1C1CCNCC1 [Ceritinib/LDK378]
AZD6738 = compound: C[C@@H]1COCCN1c1cc(C2([S@](C)(=N)=O)CC2)nc(-c2cc[nH]c3nccc2-3)n1 [AZD6738]
Paclitaxel = compound: CC(=O)O[C@H]1C(=O)[C@@]2(C)[C@H]([C@H](OC(=O)c3ccccc3)[C@]3(O)C[C@H](OC(=O)[C@H](O)[C@@H](NC(=O)c4ccccc4)c4ccccc4)C(C)=C1C3(C)C)[C@]1(OC(C)=O)CO[C@@H]1C[C@@H]2O [Paclitaxel]
THZ531 [5] = compound: T1, THZ531
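Throughout, for GR50, 72 h: breast cancer and non-malignant breast epithelial cell lines, Deep Dye Drop or Dye Drop imaging, nine half-log doses, GR normalized to time-zero plates and DMSO-only controls.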

## 184A1
YKL-5-124; 0.001 µM
  GR value: 0.287 GR
YKL-5-124; 0.003162 µM
  GR value: 0.204 GR
YKL-5-124; 0.01 µM
  GR value: 0.116 GR
YKL-5-124; 0.03162 µM
  GR value: 0.07 GR
YKL-5-124; 0.1 µM
  GR value: 0.0439 GR
YKL-5-124; 0.3162 µM
  GR value: 0.0314 GR
YKL-5-124; 1 µM
  GR value: 0.0278 GR
YKL-5-124; 3.162 µM
  GR value: -0.0126 GR
YKL-5-124; 10 µM
  GR value: -0.0798 GR
[1]; 0.0001 µM
  GR value: 1.04 GR
[1]; 0.0003162 µM
  GR value: 1.05 GR
[1]; 0.001 µM
  GR value: 1.04 GR
[1]; 0.003162 µM
  GR value: 0.865 GR
[1]; 0.01 µM
  GR value: 0.401 GR
[1]; 0.03162 µM
  GR value: -0.275 GR
[1]; 0.1 µM
  GR value: -0.222 GR
[1]; 0.3162 µM
  GR value: -0.306 GR
[1]; 1 µM
  GR value: -0.346 GR
LEE011/Ribociclib; 0.001 µM
  GR value: 0.846 GR
LEE011/Ribociclib; 0.003162 µM
  GR value: 0.792 GR
LEE011/Ribociclib; 0.01 µM
  GR value: 0.664 GR
LEE011/Ribociclib; 0.03162 µM
  GR value: 0.633 GR
LEE011/Ribociclib; 0.1 µM
  GR value: 0.549 GR
LEE011/Ribociclib; 0.3162 µM
  GR value: 0.552 GR
LEE011/Ribociclib; 1 µM
  GR value: 0.446 GR
LEE011/Ribociclib; 3.162 µM
  GR value: 0.306 GR
LEE011/Ribociclib; 10 µM
  GR value: 0.11 GR
BSJ-03-123; 0.001 µM
  GR value: 0.716 GR
BSJ-03-123; 0.003162 µM
  GR value: 0.636 GR
BSJ-03-123; 0.01 µM
  GR value: 0.521 GR
BSJ-03-123; 0.03162 µM
  GR value: 0.296 GR
BSJ-03-123; 0.1 µM
  GR value: 0.243 GR
BSJ-03-123; 0.3162 µM
  GR value: 0.145 GR
BSJ-03-123; 1 µM
  GR value: 0.114 GR
BSJ-03-123; 3.162 µM
  GR value: 0.101 GR
BSJ-03-123; 10 µM
  GR value: -0.139 GR
THZ1; 0.0001 µM
  GR value: 1.02 GR
THZ1; 0.0003162 µM
  GR value: 1 GR
THZ1; 0.001 µM
  GR value: 1.01 GR
THZ1; 0.003162 µM
  GR value: 0.822 GR
THZ1; 0.01 µM
  GR value: 0.39 GR
THZ1; 0.03162 µM
  GR value: -0.094 GR
THZ1; 0.1 µM
  GR value: -0.2 GR
THZ1; 0.3162 µM
  GR value: -0.209 GR
[2]; 0.001 µM
  GR value: 0.939 GR
[2]; 0.003162 µM
  GR value: 0.858 GR
[2]; 0.01 µM
  GR value: 0.69 GR
[2]; 0.03162 µM
  GR value: 0.413 GR
[2]; 0.1 µM
  GR value: 0.267 GR
[2]; 0.3162 µM
  GR value: 0.13 GR
[2]; 1 µM
  GR value: 0.0708 GR
[2]; 3.162 µM
  GR value: 0.0774 GR
[2]; 10 µM
  GR value: -0.105 GR
THZ531 [3]; 0.0001 µM
  GR value: 1.01 GR
THZ531 [3]; 0.0003162 µM
  GR value: 0.964 GR
THZ531 [3]; 0.001 µM
  GR value: 0.898 GR
THZ531 [3]; 0.003162 µM
  GR value: 0.954 GR
THZ531 [3]; 0.01 µM
  GR value: 0.931 GR
THZ531 [3]; 0.03162 µM
  GR value: 0.968 GR
THZ531 [3]; 0.1 µM
  GR value: 0.814 GR
THZ531 [3]; 0.3162 µM
  GR value: 0.438 GR
THZ531 [3]; 1 µM
  GR value: -0.377 GR
[4]; 0.0003162 µM
  GR value: 1.04 GR
[4]; 0.001 µM
  GR value: 0.968 GR
[4]; 0.003162 µM
  GR value: 0.963 GR
[4]; 0.01 µM
  GR value: 0.848 GR
[4]; 0.03162 µM
  GR value: 0.664 GR
[4]; 0.1 µM
  GR value: 0.465 GR
[4]; 0.3162 µM
  GR value: 0.324 GR
[4]; 1 µM
  GR value: 0.191 GR
[4]; 3.162 µM
  GR value: 0.128 GR
Rucaparib
  GR50, 72 h: > 10 µM
BSJ-01-175
  GR50, 72 h: 0.00519 µM
Tivantinib/ARQ197
  GR50, 72 h: 0.0644 µM
Pictilisib/GDC0941
  GR50, 72 h: 1.3 µM
Cediranib/AZD2171
  GR50, 72 h: 7.6 µM
Senexin b
  GR50, 72 h: > 10 µM
Ceritinib/LDK378
  GR50, 72 h: 1 µM
AZD6738
  GR50, 72 h: > 10 µM
Paclitaxel
  GR50, 72 h: 0.00313 µM
THZ531 [5]
  GR50, 72 h: 0.269 µM

## AU565
YKL-5-124; 0.001 µM
  GR value: 0.305 GR
YKL-5-124; 0.003162 µM
  GR value: 0.28 GR
YKL-5-124; 0.01 µM
  GR value: 0.128 GR
YKL-5-124; 0.03162 µM
  GR value: 0.0651 GR
YKL-5-124; 0.1 µM
  GR value: -0.0212 GR
YKL-5-124; 0.3162 µM
  GR value: -0.0588 GR
YKL-5-124; 1 µM
  GR value: -0.111 GR
YKL-5-124; 3.162 µM
  GR value: -0.172 GR
YKL-5-124; 10 µM
  GR value: -0.563 GR
[1]; 0.0001 µM
  GR value: 0.954 GR
[1]; 0.0003162 µM
  GR value: 0.978 GR
[1]; 0.001 µM
  GR value: 0.974 GR
[1]; 0.003162 µM
  GR value: 0.928 GR
[1]; 0.01 µM
  GR value: 0.19 GR
[1]; 0.03162 µM
  GR value: -0.568 GR
[1]; 0.1 µM
  GR value: -0.734 GR
[1]; 0.3162 µM
  GR value: -0.746 GR
[1]; 1 µM
  GR value: -0.767 GR
LEE011/Ribociclib; 0.001 µM
  GR value: 0.82 GR
LEE011/Ribociclib; 0.003162 µM
  GR value: 0.739 GR
LEE011/Ribociclib; 0.01 µM
  GR value: 0.645 GR
LEE011/Ribociclib; 0.03162 µM
  GR value: 0.742 GR
LEE011/Ribociclib; 0.1 µM
  GR value: 0.569 GR
LEE011/Ribociclib; 0.3162 µM
  GR value: 0.546 GR
LEE011/Ribociclib; 1 µM
  GR value: 0.487 GR
LEE011/Ribociclib; 3.162 µM
  GR value: 0.425 GR
LEE011/Ribociclib; 10 µM
  GR value: 0.227 GR
BSJ-03-123; 0.001 µM
  GR value: 0.962 GR
BSJ-03-123; 0.003162 µM
  GR value: 0.875 GR
BSJ-03-123; 0.01 µM
  GR value: 0.791 GR
BSJ-03-123; 0.03162 µM
  GR value: 0.759 GR
BSJ-03-123; 0.1 µM
  GR value: 0.833 GR
BSJ-03-123; 0.3162 µM
  GR value: 0.775 GR
BSJ-03-123; 1 µM
  GR value: 0.41 GR
BSJ-03-123; 3.162 µM
  GR value: 0.52 GR
BSJ-03-123; 10 µM
  GR value: -0.386 GR
THZ1; 0.0001 µM
  GR value: 0.903 GR
THZ1; 0.0003162 µM
  GR value: 1.02 GR
THZ1; 0.001 µM
  GR value: 0.972 GR
THZ1; 0.003162 µM
  GR value: 0.84 GR
THZ1; 0.01 µM
  GR value: 0.797 GR
THZ1; 0.03162 µM
  GR value: 0.225 GR
THZ1; 0.1 µM
  GR value: -0.325 GR
THZ1; 0.3162 µM
  GR value: -0.547 GR
THZ1; 1 µM
  GR value: -0.653 GR
[2]; 0.001 µM
  GR value: 0.876 GR
[2]; 0.003162 µM
  GR value: 0.791 GR
[2]; 0.01 µM
  GR value: 0.605 GR
[2]; 0.03162 µM
  GR value: 0.382 GR
[2]; 0.1 µM
  GR value: 0.268 GR
[2]; 0.3162 µM
  GR value: 0.223 GR
[2]; 1 µM
  GR value: 0.114 GR
[2]; 3.162 µM
  GR value: 0.0465 GR
[2]; 10 µM
  GR value: -0.328 GR
THZ531 [3]; 0.0001 µM
  GR value: 0.925 GR
THZ531 [3]; 0.0003162 µM
  GR value: 0.936 GR
THZ531 [3]; 0.001 µM
  GR value: 0.948 GR
THZ531 [3]; 0.003162 µM
  GR value: 0.994 GR
THZ531 [3]; 0.01 µM
  GR value: 1.05 GR
THZ531 [3]; 0.03162 µM
  GR value: 0.786 GR
THZ531 [3]; 0.1 µM
  GR value: 0.0998 GR
THZ531 [3]; 0.3162 µM
  GR value: -0.343 GR
THZ531 [3]; 1 µM
  GR value: -0.521 GR
[4]; 0.0003162 µM
  GR value: 1.04 GR
[4]; 0.001 µM
  GR value: 1.05 GR
[4]; 0.003162 µM
  GR value: 1.01 GR
[4]; 0.01 µM
  GR value: 0.919 GR
[4]; 0.03162 µM
  GR value: 0.73 GR
[4]; 0.1 µM
  GR value: 0.579 GR
[4]; 0.3162 µM
  GR value: 0.39 GR
[4]; 1 µM
  GR value: 0.301 GR
[4]; 3.162 µM
  GR value: 0.154 GR
Rucaparib
  GR50, 72 h: > 10 µM
BSJ-01-175
  GR50, 72 h: 0.00616 µM
Tivantinib/ARQ197
  GR50, 72 h: 0.215 µM
Pictilisib/GDC0941
  GR50, 72 h: 0.067 µM
Cediranib/AZD2171
  GR50, 72 h: > 10 µM
Senexin b
  GR50, 72 h: > 10 µM
Ceritinib/LDK378
  GR50, 72 h: 3.15 µM
AZD6738
  GR50, 72 h: 8.56 µM
Paclitaxel
  GR50, 72 h: 0.00163 µM
THZ531 [5]
  GR50, 72 h: 0.055 µM
